Legend:
Assay in all cases: relative viability (nuclei count vs DMSO), 5 days (fraction); higher = more cells survive
Calu-6 = system: Calu-6
Outline: (§1)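 Lung cancer cell lines in 1536-well plates got either a single drug or a fixed anchor-drug dose together with five library-drug doses (not always all listed) in √10 steps, by pin tool, on the day after seeding. Nuclei were counted after 5 days, and relative viability is the treated-to-vehicle ratio of nuclei counts. Values are medians of duplicate plates.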

EBC-1 = system: EBC-1
Outline: as §1

NCI-H1355 = system: NCI-H1355
Outline: as §1

LCLC-103H = system: LCLC-103H
Outline: as §1

NCI-H1703 = system: NCI-H1703
Outline: as §1

NCI-H1299 = system: NCI-H1299
Outline: as §1

A549 = system: A549
Outline: as §1

IA-LM = system: IA-LM
Outline: as §1

NCI-H520 = system: NCI-H520
Outline: as §1

NC(=O)Nc1cc(-c2cccc(F)c2)sc1C(=O)N[C@H]1CCCNC1 [AZD7762] + C[C@@H](Oc1cc(-c2cnn(C3CCNCC3)c2)cnc1N)c1c(Cl)ccc(F)c1Cl [Crizotinib] (partner 1 µM)
relative viability (Calu-6; first compound 0.01 µM): 0.897 | relative viability (Calu-6; first compound 0.03162 µM): 0.813 | relative viability (Calu-6; first compound 0.1 µM): 0.651 | relative viability (Calu-6; first compound 0.3162 µM): 0.162 | relative viability (Calu-6; first compound 1 µM): 0.0886 | relative viability (EBC-1; first compound 0.01 µM): 0.199 | relative viability (EBC-1; first compound 0.03162 µM): 0.209 | relative viability (EBC-1; first compound 0.1 µM): 0.167 | relative viability (EBC-1; first compound 0.3162 µM): 0.187 | relative viability (EBC-1; first compound 1 µM): 0.167 | relative viability (NCI-H1355; first compound 0.01 µM): 1.02 | relative viability (NCI-H1355; first compound 0.03162 µM): 1.02 | relative viability (NCI-H1355; first compound 0.1 µM): 1.01 | relative viability (NCI-H1355; first compound 0.3162 µM): 1.14 | relative viability (NCI-H1355; first compound 1 µM): 1.03 | relative viability (LCLC-103H; first compound 0.01 µM): 1.15 | relative viability (LCLC-103H; first compound 0.03162 µM): 0.994 | relative viability (LCLC-103H; first compound 0.1 µM): 1.08 | relative viability (LCLC-103H; first compound 0.3162 µM): 1.01 | relative viability (LCLC-103H; first compound 1 µM): 1.04 | relative viability (NCI-H1703; first compound 0.01 µM): 0.314 | relative viability (NCI-H1703; first compound 0.03162 µM): 0.169 | relative viability (NCI-H1703; first compound 0.1 µM): 0.136 | relative viability (NCI-H1703; first compound 0.3162 µM): 0.0849 | relative viability (NCI-H1703; first compound 1 µM): 0.105 | relative viability (NCI-H1299; first compound 0.01 µM): 0.966 | relative viability (NCI-H1299; first compound 0.03162 µM): 0.975 | relative viability (NCI-H1299; first compound 0.1 µM): 0.974 | relative viability (NCI-H1299; first compound 0.3162 µM): 0.826 | relative viability (NCI-H1299; first compound 1 µM): 0.307 | relative viability (A549; first compound 0.01 µM): 0.795 | relative viability (A549; first compound 0.03162 µM): 0.821 | relative viability (A549; first compound 0.1 µM): 0.775 | relative viability (A549; first compound 0.3162 µM): 0.424 | relative viability (A549; first compound 1 µM): 0.0696 | relative viability (IA-LM; first compound 0.01 µM): 1.04 | relative viability (IA-LM; first compound 0.03162 µM): 0.907 | relative viability (IA-LM; first compound 0.1 µM): 1.26 | relative viability (IA-LM; first compound 0.3162 µM): 0.858 | relative viability (IA-LM; first compound 1 µM): 0.277 | relative viability (NCI-H520; first compound 0.01 µM): 0.975 | relative viability (NCI-H520; first compound 0.03162 µM): 0.692 | relative viability (NCI-H520; first compound 0.1 µM): 0.477 | relative viability (NCI-H520; first compound 0.3162 µM): 0.504 | relative viability (NCI-H520; first compound 1 µM): 0.276

NC(=O)Nc1cc(-c2cccc(F)c2)sc1C(=O)N[C@H]1CCCNC1 [AZD7762] + C[C@]1(O)C[C@@H](c2nc(-c3ccc4ccc(-c5ccccc5)nc4c3)c3c(N)nccn32)C1 [Linsitinib] (partner 1 µM)
relative viability (Calu-6; first compound 0.01 µM): 1.02 | relative viability (Calu-6; first compound 0.03162 µM): 0.964 | relative viability (Calu-6; first compound 0.1 µM): 0.944 | relative viability (Calu-6; first compound 0.3162 µM): 0.649 | relative viability (Calu-6; first compound 1 µM): 0.14 | relative viability (EBC-1; first compound 0.01 µM): 1.01 | relative viability (EBC-1; first compound 0.03162 µM): 0.877 | relative viability (EBC-1; first compound 0.1 µM): 1.03 | relative viability (EBC-1; first compound 0.3162 µM): 0.884 | relative viability (EBC-1; first compound 1 µM): 0.76 | relative viability (NCI-H1355; first compound 0.01 µM): 0.805 | relative viability (NCI-H1355; first compound 0.03162 µM): 0.811 | relative viability (NCI-H1355; first compound 0.1 µM): 0.766 | relative viability (NCI-H1355; first compound 0.3162 µM): 0.859 | relative viability (NCI-H1355; first compound 1 µM): 0.762 | relative viability (LCLC-103H; first compound 0.01 µM): 1.1 | relative viability (LCLC-103H; first compound 0.03162 µM): 1.09 | relative viability (LCLC-103H; first compound 0.1 µM): 0.997 | relative viability (LCLC-103H; first compound 0.3162 µM): 1.11 | relative viability (LCLC-103H; first compound 1 µM): 0.738 | relative viability (NCI-H1703; first compound 0.01 µM): 0.688 | relative viability (NCI-H1703; first compound 0.03162 µM): 0.164 | relative viability (NCI-H1703; first compound 0.1 µM): 0.181 | relative viability (NCI-H1703; first compound 0.3162 µM): 0.164 | relative viability (NCI-H1703; first compound 1 µM): 0.177 | relative viability (NCI-H1299; first compound 0.01 µM): 0.99 | relative viability (NCI-H1299; first compound 0.03162 µM): 0.995 | relative viability (NCI-H1299; first compound 0.1 µM): 1.04 | relative viability (NCI-H1299; first compound 0.3162 µM): 1 | relative viability (NCI-H1299; first compound 1 µM): 0.323 | relative viability (A549; first compound 0.01 µM): 0.564 | relative viability (A549; first compound 0.03162 µM): 0.577 | relative viability (A549; first compound 0.1 µM): 0.705 | relative viability (A549; first compound 0.3162 µM): 0.616 | relative viability (A549; first compound 1 µM): 0.494 | relative viability (IA-LM; first compound 0.01 µM): 0.713 | relative viability (IA-LM; first compound 0.03162 µM): 0.663 | relative viability (IA-LM; first compound 0.1 µM): 0.629 | relative viability (IA-LM; first compound 0.3162 µM): 0.628 | relative viability (IA-LM; first compound 1 µM): 0.47 | relative viability (NCI-H520; first compound 0.01 µM): 1.16 | relative viability (NCI-H520; first compound 0.03162 µM): 0.893 | relative viability (NCI-H520; first compound 0.1 µM): 0.848 | relative viability (NCI-H520; first compound 0.3162 µM): 0.551 | relative viability (NCI-H520; first compound 1 µM): 0.389
